Measured values as given in ChEMBL document CHEMBL3885881, “DrugMatrix”.

Organism: Rattus norvegicus
Experiment: DrugMatrix - Regimen: Daily Repeat
Assay type: toxicity, organism-based, Sprague-Dawley
Design: regimen Daily Repeat, gender Male, age 6-8 weeks
Settings: in vivo, po, route oral GAVAGE, vehicle 100 % WATER; for ABSOLUTE BASOPHIL / ABSOLUTE EOSINOPHIL / ABSOLUTE LYMPHOCYTE / ABSOLUTE MONOCYTE / ABSOLUTE SEGMENTED NEUTROPHIL / BASOPHIL / EOSINOPHIL / ERYTHROCYTE COUNT / HEMATOCRIT / HEMOGLOBIN / LEUKOCYTE COUNT / LYMPHOCYTE / MEAN CORPUSCULAR HEMOGLOBIN / MEAN CORPUSCULAR HEMOGLOBIN CONCENTRATION / MEAN CORPUSCULAR VOLUME / MONOCYTE / NEUTROPHIL / NUCLEATED RED BLOOD CELLS / PLATELET COUNT: tissue Blood; for ALANINE AMINOTRANSFERASE / ALBUMIN / ALKALINE PHOSPHATASE / ASPARTATE AMINOTRANSFERASE / BLOOD UREA NITROGEN / CARBON DIOXIDE / CHLORIDE / CHOLESTEROL / CREATINE PHOSPHOKINASE / CREATININE / GLUCOSE / LACTATE DEHYDROGENASE / LIPASE / PHOSPHORUS / POTASSIUM / SODIUM / TOTAL BILIRUBIN / TOTAL PROTEIN / URIC ACID: tissue Plasma
[1] = 13 mg/kg, 72 h, dose level Low, time 3 day
[2] = 13 mg/kg, 120 h, dose level Low, time 5 day
[3] = 300 mg/kg, 72 h, dose level High, time 3 day
[4] = 300 mg/kg, 120 h, dose level High, time 5 day

OC(CCCN1CCCCC1)(c1ccccc1)c1ccccc1 [DIPHENIDOL]
ABSOLUTE BASOPHIL [1]: 0 CELLS/uL | ABSOLUTE EOSINOPHIL [1]: 54.67 CELLS/uL | ABSOLUTE LYMPHOCYTE [1]: 13934 CELLS/uL | ABSOLUTE MONOCYTE [1]: 204 CELLS/uL | ABSOLUTE SEGMENTED NEUTROPHIL [1]: 740.67 CELLS/uL | BASOPHIL [1]: 0% | EOSINOPHIL [1]: 0.33% | ERYTHROCYTE COUNT [1]: 5.67 x10E6/uL | HEMATOCRIT [1]: 36.33% | HEMOGLOBIN [1]: 14.43 G/DL | LEUKOCYTE COUNT [1]: 14.93 x10E3/uL | LYMPHOCYTE [1]: 93.33% | MEAN CORPUSCULAR HEMOGLOBIN [1]: 25.47 pg | MEAN CORPUSCULAR HEMOGLOBIN CONCENTRATION [1]: 39.7 G/DL | MEAN CORPUSCULAR VOLUME [1]: 64.07 fL | MONOCYTE [1]: 1.33% | NEUTROPHIL [1]: 5% | NUCLEATED RED BLOOD CELLS [1]: 0 /100WBC | PLATELET COUNT [1]: 1276.67 x10E3/uL | ALANINE AMINOTRANSFERASE [1]: 58.33 u/L | ALBUMIN [1]: 4.23 G/DL | ALKALINE PHOSPHATASE [1]: 408.67 u/L | ASPARTATE AMINOTRANSFERASE [1]: 99.33 u/L | BLOOD UREA NITROGEN [1]: 17.33 mg/dL | CARBON DIOXIDE [1]: 25 mmol/L | CHLORIDE [1]: 102.33 MEQ/L | CHOLESTEROL [1]: 72 mg/dL | CREATINE PHOSPHOKINASE [1]: 574 u/L | CREATININE [1]: 0.29 mg/dL | GLUCOSE [1]: 169.33 mg/dL | LACTATE DEHYDROGENASE [1]: 402.67 u/L | LIPASE [1]: 9.67 u/L | PHOSPHORUS [1]: 13.97 mg/dL | POTASSIUM [1]: 7.15 MEQ/L | SODIUM [1]: 146.43 MEQ/L | TOTAL BILIRUBIN [1]: 0.2 mg/dL | TOTAL PROTEIN [1]: 5.77 G/DL | URIC ACID [1]: 3.3 mg/dL | ABSOLUTE BASOPHIL [2]: 0 CELLS/uL | ABSOLUTE EOSINOPHIL [2]: 69 CELLS/uL | ABSOLUTE LYMPHOCYTE [2]: 13769 CELLS/uL | ABSOLUTE MONOCYTE [2]: 0 CELLS/uL | ABSOLUTE SEGMENTED NEUTROPHIL [2]: 1595.33 CELLS/uL | BASOPHIL [2]: 0% | EOSINOPHIL [2]: 0.33% | ERYTHROCYTE COUNT [2]: 5.45 x10E6/uL | HEMATOCRIT [2]: 34.73% | HEMOGLOBIN [2]: 13.73 G/DL | LEUKOCYTE COUNT [2]: 15.43 x10E3/uL | LYMPHOCYTE [2]: 89.67% | MEAN CORPUSCULAR HEMOGLOBIN [2]: 25.2 pg | MEAN CORPUSCULAR HEMOGLOBIN CONCENTRATION [2]: 39.53 G/DL | MEAN CORPUSCULAR VOLUME [2]: 63.8 fL | MONOCYTE [2]: 0% | NEUTROPHIL [2]: 10% | NUCLEATED RED BLOOD CELLS [2]: 0 /100WBC | PLATELET COUNT [2]: 1177.33 x10E3/uL | ALANINE AMINOTRANSFERASE [2]: 49 u/L | ALBUMIN [2]: 4.23 G/DL | ALKALINE PHOSPHATASE [2]: 358.67 u/L | ASPARTATE AMINOTRANSFERASE [2]: 78 u/L | BLOOD UREA NITROGEN [2]: 18.67 mg/dL | CARBON DIOXIDE [2]: 28 mmol/L | CHLORIDE [2]: 101.67 MEQ/L | CHOLESTEROL [2]: 68.67 mg/dL | CREATINE PHOSPHOKINASE [2]: 194.33 u/L | CREATININE [2]: 0.17 mg/dL | GLUCOSE [2]: 148.33 mg/dL | LACTATE DEHYDROGENASE [2]: 83.67 u/L | LIPASE [2]: 9 u/L | PHOSPHORUS [2]: 12.13 mg/dL | POTASSIUM [2]: 6.32 MEQ/L | SODIUM [2]: 146.57 MEQ/L | TOTAL BILIRUBIN [2]: 0.17 mg/dL | TOTAL PROTEIN [2]: 5.97 G/DL | URIC ACID [2]: 1.13 mg/dL | ABSOLUTE BASOPHIL [3]: 0 CELLS/uL | ABSOLUTE EOSINOPHIL [3]: 58 CELLS/uL | ABSOLUTE LYMPHOCYTE [3]: 16577.33 CELLS/uL | ABSOLUTE MONOCYTE [3]: 58 CELLS/uL | ABSOLUTE SEGMENTED NEUTROPHIL [3]: 1540 CELLS/uL | BASOPHIL [3]: 0% | EOSINOPHIL [3]: 0.33% | ERYTHROCYTE COUNT [3]: 5.58 x10E6/uL | HEMATOCRIT [3]: 35.57% | HEMOGLOBIN [3]: 14.3 G/DL | LEUKOCYTE COUNT [3]: 18.23 x10E3/uL | LYMPHOCYTE [3]: 91% | MEAN CORPUSCULAR HEMOGLOBIN [3]: 25.63 pg | MEAN CORPUSCULAR HEMOGLOBIN CONCENTRATION [3]: 40.17 G/DL | MEAN CORPUSCULAR VOLUME [3]: 63.8 fL | MONOCYTE [3]: 0.33% | NEUTROPHIL [3]: 8.33% | NUCLEATED RED BLOOD CELLS [3]: 0 /100WBC | PLATELET COUNT [3]: 1352.67 x10E3/uL | ALANINE AMINOTRANSFERASE [3]: 52 u/L | ALBUMIN [3]: 4.3 G/DL | ALKALINE PHOSPHATASE [3]: 318.33 u/L | ASPARTATE AMINOTRANSFERASE [3]: 74 u/L | BLOOD UREA NITROGEN [3]: 15.67 mg/dL | CARBON DIOXIDE [3]: 24.67 mmol/L | CHLORIDE [3]: 103.33 MEQ/L | CHOLESTEROL [3]: 80.33 mg/dL | CREATINE PHOSPHOKINASE [3]: 184 u/L | CREATININE [3]: 0.24 mg/dL | GLUCOSE [3]: 156.67 mg/dL | LACTATE DEHYDROGENASE [3]: 139.67 u/L | LIPASE [3]: 9 u/L | PHOSPHORUS [3]: 13.97 mg/dL | POTASSIUM [3]: 7.22 MEQ/L | SODIUM [3]: 146.87 MEQ/L | TOTAL BILIRUBIN [3]: 0.13 mg/dL | TOTAL PROTEIN [3]: 6.27 G/DL | URIC ACID [3]: 1.77 mg/dL | ABSOLUTE BASOPHIL [4]: 0 CELLS/uL | ABSOLUTE EOSINOPHIL [4]: 44 CELLS/uL | ABSOLUTE LYMPHOCYTE [4]: 14983.33 CELLS/uL | ABSOLUTE MONOCYTE [4]: 56.33 CELLS/uL | ABSOLUTE SEGMENTED NEUTROPHIL [4]: 783 CELLS/uL | BASOPHIL [4]: 0% | EOSINOPHIL [4]: 0.33% | ERYTHROCYTE COUNT [4]: 5.89 x10E6/uL | HEMATOCRIT [4]: 35.8% | HEMOGLOBIN [4]: 14.47 G/DL | LEUKOCYTE COUNT [4]: 15.87 x10E3/uL | LYMPHOCYTE [4]: 94.33% | MEAN CORPUSCULAR HEMOGLOBIN [4]: 24.63 pg | MEAN CORPUSCULAR HEMOGLOBIN CONCENTRATION [4]: 40.43 G/DL | MEAN CORPUSCULAR VOLUME [4]: 60.97 fL | MONOCYTE [4]: 0.33% | NEUTROPHIL [4]: 5% | NUCLEATED RED BLOOD CELLS [4]: 0.33 /100WBC | PLATELET COUNT [4]: 1311 x10E3/uL | ALANINE AMINOTRANSFERASE [4]: 67.67 u/L | ALBUMIN [4]: 4.47 G/DL | ALKALINE PHOSPHATASE [4]: 383 u/L | ASPARTATE AMINOTRANSFERASE [4]: 106.33 u/L | BLOOD UREA NITROGEN [4]: 14.33 mg/dL | CARBON DIOXIDE [4]: 23 mmol/L | CHLORIDE [4]: 101 MEQ/L | CHOLESTEROL [4]: 53.67 mg/dL | CREATINE PHOSPHOKINASE [4]: 291 u/L | CREATININE [4]: 0.27 mg/dL | GLUCOSE [4]: 161 mg/dL | LACTATE DEHYDROGENASE [4]: 445 u/L | LIPASE [4]: 11 u/L | PHOSPHORUS [4]: 14.9 mg/dL | POTASSIUM [4]: 6.65 MEQ/L | SODIUM [4]: 146.5 MEQ/L | TOTAL BILIRUBIN [4]: 0.1 mg/dL | TOTAL PROTEIN [4]: 6.2 G/DL | URIC ACID [4]: 2.83 mg/dL
